# “And” between values parts separate entries of the source, which are not always exact repeats. Equal values may be shown once. The source made the active and inactive calls.
# Tests used:
# [1] = molecular target: T1, Dual specificity protein phosphatase 6 (Rattus norvegicus, UniProt Q64346); assay: inhibition of rat DUSP6 enzyme activity – biochemical, in vitro, primary screen (AID 425)
# T1 sequence (Q64346 whole entry): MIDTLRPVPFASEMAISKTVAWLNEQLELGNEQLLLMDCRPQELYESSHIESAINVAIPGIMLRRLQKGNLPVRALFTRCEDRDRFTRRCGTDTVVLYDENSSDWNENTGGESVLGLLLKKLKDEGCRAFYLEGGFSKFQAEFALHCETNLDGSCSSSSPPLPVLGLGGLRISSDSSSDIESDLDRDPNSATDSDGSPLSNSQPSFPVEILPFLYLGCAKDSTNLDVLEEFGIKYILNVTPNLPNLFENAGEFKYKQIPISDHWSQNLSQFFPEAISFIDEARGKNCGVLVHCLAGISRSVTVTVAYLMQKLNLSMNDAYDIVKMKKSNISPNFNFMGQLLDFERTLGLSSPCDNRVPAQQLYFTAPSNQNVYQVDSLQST
# [2] = molecular target: DNA dC->dU-editing enzyme APOBEC-3G (Homo sapiens, UniProt Q9HC16); assay: Dose Response confirmation of small molecule APOBEC3G DNA Deaminase Inhibitors via a fluorescence-based single-stranded DNA deaminase assay. [Related pubchem assays (depositor defined):AID493012, AID493028]; type: functional
# Chain of DNA dC->dU-editing enzyme APOBEC-3G (Q9HC16 whole entry): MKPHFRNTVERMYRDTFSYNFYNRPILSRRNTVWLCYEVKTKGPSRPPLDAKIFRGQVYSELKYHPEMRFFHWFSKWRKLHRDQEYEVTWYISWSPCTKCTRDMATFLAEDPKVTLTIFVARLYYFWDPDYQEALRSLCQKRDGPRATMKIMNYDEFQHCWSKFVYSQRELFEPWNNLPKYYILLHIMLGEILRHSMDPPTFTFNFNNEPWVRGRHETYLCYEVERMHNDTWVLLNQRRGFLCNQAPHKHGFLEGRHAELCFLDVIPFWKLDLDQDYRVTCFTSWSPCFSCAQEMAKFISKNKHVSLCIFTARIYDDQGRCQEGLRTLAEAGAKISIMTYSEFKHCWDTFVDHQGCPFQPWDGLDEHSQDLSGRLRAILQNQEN
# [3] = molecular target: T2, Dual specificity protein phosphatase 3 (Homo sapiens, UniProt P51452); assay: VHR1 phosphatase inhibitors, biochemical (AID 1878)
# T2 sequence (P51452 whole entry): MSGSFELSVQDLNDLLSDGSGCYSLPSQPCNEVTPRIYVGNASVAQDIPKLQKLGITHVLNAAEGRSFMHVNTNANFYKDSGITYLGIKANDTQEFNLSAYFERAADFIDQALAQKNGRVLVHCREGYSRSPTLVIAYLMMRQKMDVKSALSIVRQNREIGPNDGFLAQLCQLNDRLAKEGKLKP
# [4] = molecular target: T3, Tyrosine-protein phosphatase non-receptor type 7 (Homo sapiens, UniProt P35236); assay: redox-active compounds inhibiting HePTP phosphatase – biochemical, fluorescence, mechanism study (AID 2068); type: functional
# T3 sequence (P35236 whole entry): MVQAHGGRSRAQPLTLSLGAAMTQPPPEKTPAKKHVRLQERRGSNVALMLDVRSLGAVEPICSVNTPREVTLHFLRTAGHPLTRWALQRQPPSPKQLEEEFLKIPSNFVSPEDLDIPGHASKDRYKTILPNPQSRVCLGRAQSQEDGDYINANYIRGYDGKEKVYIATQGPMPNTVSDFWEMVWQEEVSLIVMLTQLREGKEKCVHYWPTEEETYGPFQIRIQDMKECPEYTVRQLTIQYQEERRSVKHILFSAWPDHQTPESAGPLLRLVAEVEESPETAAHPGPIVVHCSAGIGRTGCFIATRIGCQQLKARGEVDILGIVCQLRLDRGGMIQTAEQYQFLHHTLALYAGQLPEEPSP
# [5] = molecular target: T1, Dual specificity protein phosphatase 6; assay: SAR analysis of inhibitors of MKP-3 - Set 2. [Related pubchem assays (depositor defined):AID1055, AID1661, AID425, AID553, AID566]; type: functional
# [6] = molecular target: T4, Rac GTPase-activating protein 1 (Homo sapiens, UniProt Q9H0H5); assay: blockers of MgcRacGAP-driven Rac1 GTP hydrolysis – biochemical, ADP Hunter fluorescence, primary and confirmatory, confirmation (AID 624330); type: functional
# T4 sequence (Q9H0H5 whole entry): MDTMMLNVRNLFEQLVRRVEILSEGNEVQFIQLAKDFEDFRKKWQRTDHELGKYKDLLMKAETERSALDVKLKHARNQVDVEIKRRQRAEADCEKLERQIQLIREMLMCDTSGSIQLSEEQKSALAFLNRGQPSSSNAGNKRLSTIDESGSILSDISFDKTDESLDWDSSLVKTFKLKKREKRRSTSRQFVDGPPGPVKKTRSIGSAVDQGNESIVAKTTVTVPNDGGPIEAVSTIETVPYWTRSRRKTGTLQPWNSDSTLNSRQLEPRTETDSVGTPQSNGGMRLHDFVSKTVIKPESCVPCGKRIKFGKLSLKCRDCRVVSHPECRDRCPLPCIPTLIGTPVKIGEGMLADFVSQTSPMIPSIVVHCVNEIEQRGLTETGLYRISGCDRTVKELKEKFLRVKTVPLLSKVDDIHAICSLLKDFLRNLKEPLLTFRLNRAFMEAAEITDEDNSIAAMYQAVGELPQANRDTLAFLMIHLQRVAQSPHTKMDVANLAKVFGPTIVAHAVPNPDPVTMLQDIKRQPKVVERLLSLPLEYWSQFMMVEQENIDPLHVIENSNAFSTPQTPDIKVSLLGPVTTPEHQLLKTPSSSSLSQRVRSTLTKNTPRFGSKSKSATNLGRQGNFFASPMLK
# [7] = molecular target: T2, Dual specificity protein phosphatase 3; assay: VHR1 phosphatase inhibitors, primary screen, biochemical, absorbance, uHTS (AID 1654)
# [8] = molecular target: T3, Tyrosine-protein phosphatase non-receptor type 7; assay: inhibition of hematopoietic tyrosine phosphatase HePTP – biochemical, set 2, SAR follow-up (AID 449736); type: functional
# [9] = molecular target: T2, Dual specificity protein phosphatase 3; assay: SAR VHR1 Fluorescent Assay for In Vitro dose response studies Set 2. [Related pubchem assays (depositor defined):AID1654, AID1661, AID1878]; type: functional
# [10] = molecular target: DNA dC->dU-editing enzyme APOBEC-3A (Homo sapiens, UniProt P31941); assay: A3A deaminase inhibition for selectivity – biochemical, dose response (AID 504722); type: functional
# Chain of DNA dC->dU-editing enzyme APOBEC-3A (P31941 whole entry): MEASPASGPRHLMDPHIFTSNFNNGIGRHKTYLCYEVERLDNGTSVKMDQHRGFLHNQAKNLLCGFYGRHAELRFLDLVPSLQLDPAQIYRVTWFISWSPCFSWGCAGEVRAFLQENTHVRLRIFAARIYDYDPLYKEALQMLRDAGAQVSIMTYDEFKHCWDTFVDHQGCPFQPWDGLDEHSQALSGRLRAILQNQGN
# [11] = molecular target: T3, Tyrosine-protein phosphatase non-receptor type 7; assay: SAR analysis of chemical inhibitors of HePTP using a Fluorescent assay - Set 2. [Related pubchem assays (depositor defined):AID1059, AID1077, AID1661, AID2085, AID521]; type: functional
# [12] = molecular target: Glucose-6-phosphate 1-dehydrogenase (Homo sapiens, UniProt P11413); assay: inhibition of Homo sapiens G6PD, dose series – biochemical, fluorescence, selectivity assay for P. falciparum G6PD inhibitor project, dose response (AID 504792); type: functional
# Chain of Glucose-6-phosphate 1-dehydrogenase (P11413 whole entry): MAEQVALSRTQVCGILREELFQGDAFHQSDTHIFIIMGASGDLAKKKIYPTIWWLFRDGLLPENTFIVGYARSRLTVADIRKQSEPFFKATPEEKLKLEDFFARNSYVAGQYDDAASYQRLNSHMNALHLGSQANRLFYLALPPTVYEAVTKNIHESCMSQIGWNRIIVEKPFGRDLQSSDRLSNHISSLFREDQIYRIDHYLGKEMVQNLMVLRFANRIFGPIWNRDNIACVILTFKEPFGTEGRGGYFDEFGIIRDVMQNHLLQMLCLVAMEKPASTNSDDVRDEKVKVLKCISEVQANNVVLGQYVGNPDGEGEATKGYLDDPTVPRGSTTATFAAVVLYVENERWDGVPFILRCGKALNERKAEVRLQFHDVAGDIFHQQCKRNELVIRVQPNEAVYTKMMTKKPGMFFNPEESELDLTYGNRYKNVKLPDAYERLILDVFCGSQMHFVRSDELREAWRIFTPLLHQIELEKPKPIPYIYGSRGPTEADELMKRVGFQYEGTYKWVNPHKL
# [13] = molecular target: T1, Dual specificity protein phosphatase 6; type: functional
# [14] = molecular target: T2, Dual specificity protein phosphatase 3; assay: SAR VHR1 Fluorescent Assay for In Vitro dose response studies. [Related pubchem assays (depositor defined):AID1654, AID1661, AID1878, AID1992, AID2004, AID2070, AID2085]; type: functional
# [15] = molecular target: T2, Dual specificity protein phosphatase 3; assay: SAR VHR1 absorbance Assay for In Vitro dose response studies. [Related pubchem assays (depositor defined):AID1654, AID1661, AID1878, AID1992, AID2004]
# Jurkat [16] = assay: blockers of NF-kB activation in T cells – Jurkat, luciferase reporter, luminescence, B- and T-cell, dose response (AID 489004); type: functional, cell-based; conditions: Homo sapiens;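 also: NF-kB luciferase reporter Jurkat cells stimulated with PMA plus ionomycin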
# [17] = HEK-293T viability loss, compound-treated – cell-based, uHTS hits, cytotoxicity control for B/T-cell NF-kB inhibitor project, dose response (AID 489019); type: functional;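 also: IC50 reflects cytotoxicity as loss of cell viability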
# [18] = molecular target: Beta-adrenergic receptor kinase 1 (Homo sapiens, UniProt P25098); assay: blockers of aptamer binding to GRK2 – biochemical, flow cytometry beads, FAM-aptamer, powder set 1, dose response (AID 588720)
# Chain of Beta-adrenergic receptor kinase 1 (P25098 whole entry, the tested form may be a part): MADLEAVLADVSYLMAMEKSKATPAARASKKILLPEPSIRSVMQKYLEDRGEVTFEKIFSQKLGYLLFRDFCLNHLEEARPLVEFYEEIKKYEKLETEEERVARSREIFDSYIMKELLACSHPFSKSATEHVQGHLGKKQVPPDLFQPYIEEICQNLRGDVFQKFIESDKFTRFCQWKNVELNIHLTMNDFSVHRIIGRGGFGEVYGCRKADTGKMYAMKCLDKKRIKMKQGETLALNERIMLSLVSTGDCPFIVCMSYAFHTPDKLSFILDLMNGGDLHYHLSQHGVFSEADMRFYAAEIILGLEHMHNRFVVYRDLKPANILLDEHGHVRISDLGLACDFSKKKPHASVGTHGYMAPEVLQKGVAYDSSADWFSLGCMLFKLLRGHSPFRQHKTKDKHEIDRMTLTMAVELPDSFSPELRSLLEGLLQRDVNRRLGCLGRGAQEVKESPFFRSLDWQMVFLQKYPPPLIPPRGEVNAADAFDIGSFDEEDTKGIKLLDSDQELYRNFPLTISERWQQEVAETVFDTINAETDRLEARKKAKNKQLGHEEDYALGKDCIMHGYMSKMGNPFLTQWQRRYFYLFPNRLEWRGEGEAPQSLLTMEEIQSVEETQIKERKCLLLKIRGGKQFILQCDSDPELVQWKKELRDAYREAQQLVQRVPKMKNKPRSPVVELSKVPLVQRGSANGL
# [19] = molecular target: T5, Carboxy-terminal domain RNA polymerase II polypeptide A small phosphatase 1 (Homo sapiens, UniProt Q9GZU7); assay: CTDSP1 inhibitors, concentration-response, biochemical, absorbance readout, ultra-high-throughput screen actives (AID 540297); type: functional
# T5 sequence (Q9GZU7 whole entry): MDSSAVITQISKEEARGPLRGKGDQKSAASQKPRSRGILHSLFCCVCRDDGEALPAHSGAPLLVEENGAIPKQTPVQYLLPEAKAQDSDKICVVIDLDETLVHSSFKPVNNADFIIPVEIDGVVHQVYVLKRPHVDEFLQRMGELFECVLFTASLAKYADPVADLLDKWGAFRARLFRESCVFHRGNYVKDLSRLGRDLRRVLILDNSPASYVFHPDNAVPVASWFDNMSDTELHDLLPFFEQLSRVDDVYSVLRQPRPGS
# HEK293 [20] = assay: SAR Analysis of small molecule inhibitors of B-cell specific antigen receptor-induced NF-kB activation in a HEK-293T cell line using a luminescence assay - Set 2. [Related pubchem assays (depositor defined):AID435022, AID435025, AID489021]; type: functional, cell-based; conditions: Homo sapiens
# HEK293 [21] = assay: HEK293T cell viability loss, resazurin readout – resazurin fluorescence, cytotoxicity control for NF-kB activator project, SAR follow-up (AID 493251); type: functional, cell-based; conditions: Homo sapiens
# [22] = HEK-293T cell viability reduction – luminescence, B-cell screen hits, cytotoxicity control for BCR NF-kB inhibitor project, dose response (AID 489021); type: functional, cell-based;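 also: HEK-293T cells carrying an NF-kB luciferase reporter; cells exposed to compound for about 14 hours before viability readout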
# Jurkat [23] = assay: SAR Analysis of small molecule inhibitors of […] specific antigen receptor-induced NF-kB activation in a Jurkat cell line using a luminescence assay - Set 3. [Related pubchem assays (depositor defined):AID435022, AID435025, AID465]; type: functional, cell-based; conditions: Homo sapiens
# [24] = Luminescent dose response cell-based high throughput screening assay for inhibitors of the Janus kinase 2 mutant JAK2V617F. [Related pubchem assays: 1446 (Primary screen.), 1521 (Confirmation assay.), 1486 (Counter screen.)]; type: functional
# Paired box protein Pax-8 = Paired box protein Pax-8 (Homo sapiens, UniProt Q06710); assay: PAX8 transcriptional activity inhibition in RMG-I – RMG-I cells, luciferase, cherry-pick, dose response (AID 687027); type: functional, cell-based;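 also: luciferase reporter driven by Pax8 target thyroperoxidase promoter measured by SteadyGlo luminescence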
# Chain of Paired box protein Pax-8 (Q06710 whole entry): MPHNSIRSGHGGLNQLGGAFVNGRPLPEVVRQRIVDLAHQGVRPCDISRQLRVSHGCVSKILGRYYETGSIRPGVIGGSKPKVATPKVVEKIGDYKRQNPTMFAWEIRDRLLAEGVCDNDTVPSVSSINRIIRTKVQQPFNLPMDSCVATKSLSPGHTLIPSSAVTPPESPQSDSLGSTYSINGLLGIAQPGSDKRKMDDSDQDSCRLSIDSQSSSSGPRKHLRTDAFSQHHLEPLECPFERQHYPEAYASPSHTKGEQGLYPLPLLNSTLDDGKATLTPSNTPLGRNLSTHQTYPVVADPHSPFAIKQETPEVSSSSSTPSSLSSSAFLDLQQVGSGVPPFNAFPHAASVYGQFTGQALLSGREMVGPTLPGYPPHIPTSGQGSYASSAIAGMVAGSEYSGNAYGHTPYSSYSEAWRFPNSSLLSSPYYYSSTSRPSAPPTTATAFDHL
# A-375 = assay: MITF: Counter assay: A375 proliferation Measured in Cell-Based System Using Plate Reader - 2084-03_Inhibitor_Dose_DryPowder_Activity. [Related pubchem assays (depositor defined):AID488944]; type: functional; conditions: Homo sapiens
# [25] = molecular target: T6, Microphthalmia-associated transcription factor (Homo sapiens, UniProt O75030); assay: reducers of TRPM1 reporter luminescence, concentration series – cell-based, SK-MEL-5, cherry-picked, set 3, MITF inhibitor project, dose response (AID 493073); type: functional;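 also: SK-MEL-5 melanoma cells with luciferase driven by the MITF target TRPM1 promoter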
# T6 sequence (O75030 whole entry): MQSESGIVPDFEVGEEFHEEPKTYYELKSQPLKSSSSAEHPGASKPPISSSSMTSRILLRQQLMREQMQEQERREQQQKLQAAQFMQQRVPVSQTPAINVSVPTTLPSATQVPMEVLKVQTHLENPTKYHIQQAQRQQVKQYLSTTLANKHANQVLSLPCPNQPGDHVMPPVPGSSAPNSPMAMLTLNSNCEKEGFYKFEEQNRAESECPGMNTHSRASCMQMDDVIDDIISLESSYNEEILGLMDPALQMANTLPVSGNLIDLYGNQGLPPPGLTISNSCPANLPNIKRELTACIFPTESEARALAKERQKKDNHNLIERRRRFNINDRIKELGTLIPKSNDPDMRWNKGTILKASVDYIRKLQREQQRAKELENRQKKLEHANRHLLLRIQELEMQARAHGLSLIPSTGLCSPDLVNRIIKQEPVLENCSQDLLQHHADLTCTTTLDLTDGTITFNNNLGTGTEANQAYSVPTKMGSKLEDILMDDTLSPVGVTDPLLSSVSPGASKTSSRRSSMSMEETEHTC
structure (smiles),measurement,setting,value
CN1CCN(C(=O)c2sc(=S)n(-c3ccccc3)c2N)CC1,IC50,[1],> 158 µM (not active)
same,IC50,[2],5.51 µM (active)
same,IC50,[3],3.53 µM (active)
same,IC50,[4],0.0586 µM (active)
same,IC50,[5],> 100 µM (inactive)
same,IC50,[6],191 µM (active)
same,IC50,[7],1.27 µM (active)
same,IC50,[8],1.14 µM (active) and > 100 µM (inactive) and 7.06 µM (active)
same,IC50,[9],0.26 µM (active)
same,IC50,[10],> 100 µM (inactive)
same,IC50,[11],1.05 µM (active)
same,IC50,[12],> 80 µM (inactive)
same,IC50,[13],> 99 µM (inactive)
same,IC50,[14],> 99 µM (inactive)
same,IC50,[15],0.53 µM (active)
Cn1nc(CC(=O)Nc2ccc3c(c2)CCC3)c2ccccc2c1=O,IC50,Jurkat [16],> 80 µM (inactive)
same,IC50,[17],> 80 µM (inactive)
O=C(CCS(=O)(=O)c1ccc(Br)cc1)Nc1ccc(Br)cc1F,EC50,[18],21.2 µM (active)
same,IC50,[19],22 µM (active)
CCCNC(=O)CSCc1nc(-c2ccc(SC)cc2)oc1C,IC50,HEK293 [20],42.5 µM (inactive)
same,IC50,HEK293 [21],> 80 µM (inactive)
same,IC50,[22],> 80 µM (inactive)
same,IC50,Jurkat [23],> 80 µM (inactive)
Cc1ccc2nc(C)cc(Nc3ccc([N+](=O)[O-])cc3)c2c1,IC50,[24],1.29 µM (active)
same,AC50,Paired box protein Pax-8,5.33 µM (active)
same,AC50,A-375,24.7 µM (active)
same,AC50,[25],5.88 µM (active)
